Reference: patent US20220296563A1, “ACYLATED ACTIVE AGENTS AND METHODS OF THEIR USE FOR THE TREATMENT OF METABOLIC DISORDERS AND NONALCOHOLIC FATTY LIVER DISEASE” (Flagship Pioneering Innovations V, Inc., priority 2019, published 2022)

Experiments:
Mouse myocyte = Mouse myocyte lipolysis assay; type: cell-based; settings: 100 μM, differentiated myocytes
Description: Cells were obtained from ATCC and cultured in Dulbecco's Modified Eagle's medium (DMEM) containing 20% fetal bovine serum and 1% penicillin/streptomycin at 37° C. in an incubator with 5% CO2 Once the cells became confluent, they were seeded into a tissue culture treated 96 well plate. The next day, the medium containing DMEM with 2% equine serum was used to start differentiation. Table 2 lists the tested compounds including those that reduced the release of glycerol (+, ++, or +++). The lipolytic rate of muscle triglycerides is associated with metabolic dysfunction including insulin resistance and liver steatosis. Compounds that lower lipolysis of adipocytes may improve metabolic function including improving insulin sensitivity and reducing liver steatosis, thus improving outcomes in patients with diabetes mellitus (e.g., prediabetes or type II diabetes) obesity, and hyperlipidemia.

C57BL/6 mice = assay: In vivo evaluation in C57BL/6 mice fed a high-fat diet; settings: vs. HFD control group, up to day 84
Description: Animals were allowed free access to food and drinking water for the entire study. Animals were weighed on a regular basis, and food and drinking water consumption monitored. Plasma and stool samples were collected at the beginning of the study and 42 days into the study. Additional blood was drawn from fasted mice 58 days into the study. Insulin tolerance tests were performed 72 or 73 days into the study. Following an approximate 4 h fast, 0.5 Units/kg insulin was administered intraperitoneally. Blood was collected pre-insulin challenge (t=0) and at t=15, 30, 60, 90, and 120 min following insulin challenge. Oral glucose tolerance tests were performed 79 or 80 days into the study. Following an approximate 4 h fast, 2 g/kg glucose was administered by oral gavage. Blood was collected pre-insulin challenge (t=0) and at t=15, 30, 60, 90, and 120 min following glucose challenge. At the end of the study, body weight, food consumption, blood glucose, serum ALT levels, serum AST levels, serum cholesterol (total cholesterol. HDL, and LDL levels), serum triglycerides levels, liver triglyceride levels, liver cholesterol levels, liver weight, subcutaneous were measured in all mice.

Row | Compound | Free glycerol % DMSO (Mouse myocyte) | body weight (C57BL/6 mice)
1 | O=C(O)c1cc(O)ccc1O [Gentisate] | +++ (50%<: +++) | –
2 | CC(=O)O[C@@H]1OC[C@@H](OC(C)=O)[C@H](OC(C)=O)[C@H]1OC(C)=O [compound 4] | – | induce weight loss
